Several values for one entry are separate records, joined by “and”; a condition that tells them apart may be missing. Equal entries are not always repeated.
Experiments:
[1] = system: NSCLC tumors expressing TElomerase Reverse Transcriptase (TERT); assay: Vx-001-201 randomized double blind phase IIb study: clinical outcome (OS, TTF, 12 months survival); assay type: in vivo, human; conditions: without natural immunity; for HR (OS) / HR (TTF): Vx-001 vs placebo
Text: The Vx-001-201 study is a randomized, double blind multicenter study done in 70 centers in France, Germany, Spain, Italy, Greece, Poland, Romania and Czech Republic. Key eligibility criteria were a) non small cell lung cancer (NSCLC), b) stage IV or recurrent stage I-III, c) disease control after platinum based first line chemotherapy according to RECIST 1.1 criteria, d) HLA-A*0201 positivity, e) tumors expressing TElomerase Reverse Transcriptase (TERT), f) ECOG 0 or 1 g) absence of brain metastasis.
• a) Principal endpoint: overall survival (OS) measured from randomization • b) Secondary endpoints: • Time to Treatment Failure (TTF) measured from randomization • OS at 12 months • c) Main exploratory objectives • Evaluation of vaccine induced specific immune response • Correlation between vaccine specific immune response and clinical response Procedures and Vaccination Protocol
Patients who fulfilled all inclusion criteria were randomized within 4 weeks after the end of first line chemotherapy.
The vaccination protocol consisted in six vaccinations at three week interval. The optimized Vx-001/TERT572Y was used in the first two vaccinations and the native Vx-001/TERT572 in the following four vaccinations. Patients who continued controlling their disease after the sixth vaccination received boost vaccination with the Vx-001/TERT572 every three months. Vaccination was stopped at disease progression (FIG. 1).
The primary and secondary endpoints were analysed in the Full Analysis Set (FAS) composed of all patients who fulfilled the five main criteria a) NSCLC, b) stage IV or recurrent stage I-III, c) disease control after first line chemotherapy, d) HLA-A*0201 positivity and e) TERT expressing tumors.
We used the Kaplan-Meier method to estimate OS and TTF in each arm and a Cox proportional hazards regression model to estimate Hazard Ratio (HR) relating OS and TTF to the treatment effect.

TERT572 peptide = assay: IFNg ELISpot immunomonitoring of vaccine induced TERT572 specific immune response in PBMC; assay type: cell-based, human
[2] = Former smoker (≤20 years) (never smoked or smokers less than 20 years)
[3] = Former smoker (≤25 years) (never smoked or smokers less than 25 years)
[4] = Heavy smoker (>25 years, former or current smoker)
[5] = NS or light smoker (≤25 years, former or current smoker)

Vx-001: vaccine composed of two nine amino acid peptides, TERT572 and TERT572Y, administered separately with the adjuvant Montanide ISA51 VG (chain 1 RLFFYRKSV; chain 2 YLFFYRKSV; Montanide ISA51 VG adjuvant; peptide from a human protein; optimized peptide)
Median survival (OS) ([1]; <65 years (n = 59)): 12.7 months | HR (OS) ([1]; <65 years (n = 59)): 1.00 | HR (TTF) ([1]; <65 years (n = 59)): 0.84 | 12 months OS ([1]; >65 years (n = 63)): 57.1% | Median TTF ([1]; >65 years (n = 63)): 4.4 months | Median survival (OS) ([1]; >65 years (n = 63)): 14.1 months | HR (OS) ([1]; >65 years (n = 63)): 0.63 | HR (TTF) ([1]; >65 years (n = 63)): 0.65 | 12 months OS ([1]; Current smoker): 20% | Median TTF ([1]; Current smoker): 4.4 months | Median survival (OS) ([1]; Current smoker): 6.4 months | HR (OS) ([1]; Current smoker): 1.3 | HR (TTF) ([1]; Current smoker): 0.70 | 12 months OS ([1]; Female (n = 33)): 52.9% | Median TTF ([1]; Female (n = 33)): 4.6 months | Median survival (OS) ([1]; Female (n = 33)): 12.7 months | HR (OS) ([1]; Female (n = 33)): 1.24 | HR (TTF) ([1]; Female (n = 33)): 0.91 | Median TTF ([1]; Former smoker (<30 years)): 4.2 months | HR (TTF) ([1]; Former smoker (<30 years)): 0.55 | Median TTF [1, 2]: 5.6 months | HR (TTF) [1, 2]: 0.39 | Median TTF [1, 3]: 5.6 months | HR (TTF) [1, 3]: 0.43 | 12 months OS [1, 4]: 42.1% | Median survival (OS) [1, 4]: 9.9 months | HR (OS) [1, 4]: 1.15 | 12 months OS ([1]; Male (n = 89)): 56.4% | Median TTF ([1]; Male (n = 89)): 3.7 months | Median survival (OS) ([1]; Male (n = 89)): 14.1 months | HR (OS) ([1]; Male (n = 89)): 0.70 | HR (TTF) ([1]; Male (n = 89)): 0.7 | 12 months OS ([1]; NS + Former smoker (<30 years)): 78% | Median survival (OS) ([1]; NS + Former smoker (<30 years)): 20.2 months | HR (OS) ([1]; NS + Former smoker (<30 years)): 0.37 | 12 months OS ([1]; NS + Former smoker (≤20 years)): 80% | Median survival (OS) ([1]; NS + Former smoker (≤20 years)): 20.2 months | HR (OS) ([1]; NS + Former smoker (≤20 years)): 0.23 | 12 months OS ([1]; NS + Former smoker (≤25 years)): 82.3% | Median survival (OS) ([1]; NS + Former smoker (≤25 years)): 20.7 months | HR (OS) ([1]; NS + Former smoker (≤25 years)): 0.29 | 12 months OS [1, 5]: 83.0% | Median survival (OS) [1, 5]: 20.7 months | HR (OS) [1, 5]: 0.27 | 12 months OS ([1]; NSQ (n = 76)): 56.7% | Median survival (OS) ([1]; NSQ (n = 76)): 13.4 months | HR (OS) ([1]; NSQ (n = 76)): 0.58 | Median TTF ([1]; NSQ (n = 78)): 4.6 months | HR (TTF) ([1]; NSQ (n = 78)): 0.61 | Median TTF ([1]; Never smoker): 5.6 months | 12 months OS ([1]; Never smoker (NS)): 85.7% | Median survival (OS) ([1]; Never smoker (NS)): 16.2 months | HR (OS) ([1]; Never smoker (NS)): 0.2 | HR (TTF) ([1]; Never smoker): 0.51 | 12 months OS ([1]; OR to chemotherapy (n = 55)): 59% and 57.9% | Median TTF ([1]; OR to chemotherapy (n = 55)): 5.3 months | Median survival (OS) ([1]; OR to chemotherapy (n = 55)): 13.2 months | HR (OS) ([1]; OR to chemotherapy (n = 55)): 0.72 | HR (TTF) ([1]; OR to chemotherapy (n = 55)): 0.56 | 12 months OS ([1]; SD to chemotherapy (n = 67)): 54% | Median TTF ([1]; SD to chemotherapy (n = 67)): 3.6 months | Median survival (OS) ([1]; SD to chemotherapy (n = 67)): 13.6 months | HR (OS) ([1]; SD to chemotherapy (n = 67)): 0.82 | HR (TTF) ([1]; SD to chemotherapy (n = 67)): 0.95 | 12 months OS ([1]; SQ (n = 46)): 52.6% | Median TTF ([1]; SQ (n = 46)): 3 months | Median survival (OS) ([1]; SQ (n = 46)): 13.2 months | HR (OS) ([1]; SQ (n = 46)): 1.41 | HR (TTF) ([1]; SQ (n = 46)): 1.18 | Patients who mounted a TERT572 specific immune response (TERT572 peptide; 75 Vx-001 treated patients measured at least at W6, W18 or thereafter): 29.3% | Patients with TERT572 specific immune response (TERT572 peptide; non-squamous (NSQ) NSCLC): 36% | Frequency of patients with vaccine-induced immune response (TERT572 peptide; patients with natural immunity against TERT572): 15% | Frequency of patients with vaccine-induced immune response (TERT572 peptide; patients without natural immunity against TERT572): 36.2% | Patients with TERT572 specific immune response (TERT572 peptide; squamous (SQ) NSCLC): 13.3%

— patent publication US12048737B2, “Use of a vaccine targeting a cryptic tert epitope, for treating cancer in a HLA-A*0201-positive patient having a non-immunogenic tumor expressing tert” (KRIPTIC PHARMACEUTICALS LIMITED, priority 2017, dated 2024)
